Literature values, collected in US11622958B2, “Bifunctional prodrugs” (GEORG-AUGUST-UNIVERSITÄT GÖTTINGEN STIFTUNG ÖFFENTLICHEN …, priority 2015, dated 2023).

What was measured:
[1] = not given; remark: listed apart in the source

COc1c(O)c2c(c3cc(C(=O)N4CCc5c4c(O)c(OC)c4[nH]c(C(=O)N6CC7CC78C6=CC(=O)c6[nH]cc(C)c68)cc54)[nH]c13)CCN2C(N)=O (centres unmarked) [CC-1065]
IC50: 0.02 nM | hepatotoxicity in animal experiments [1]: delayed lethal hepatotoxicity
